Entries after “also recorded” stand apart in the source; their conditions may differ.
What was measured:
NTR1 [1] = target: T1, NTR1 (Homo sapiens, UniProt P30989); assay: NTR1 Ca2+ Flux assay; assay type: cell-based
NTR1 [2] = target: T1, NTR1; assay: NTR1 HCS primary assay; assay type: cell-based; details: for loss in potency compared to 32: NTR1 HCS EC50 relative to compound 32
[3] = tested on: GPR55, APJ, k-opiod, CCR6, and CXCR6; assay: Functional high content or β-arrestin based GPCR screens; assay type: cell-based; details: result in words
[4] = tested on: adrenergic receptors (α1a, α1B, α1D, α2A); assay: Panlabs/Ricerca lead profiling panel; assay type: binding; details: at 10 μM, range across α1a
[5] = tested on: Fa2N-4 Immortalized Human Hepatocytes; assay: Toxicity towards hepatocytes; assay type: cell-based; details: LC50 towards human hepatocytes versus NTR1 potency
[6] = NTR1 HCS EC50 relative to compound 5

T1 sequence (P30989 whole entry): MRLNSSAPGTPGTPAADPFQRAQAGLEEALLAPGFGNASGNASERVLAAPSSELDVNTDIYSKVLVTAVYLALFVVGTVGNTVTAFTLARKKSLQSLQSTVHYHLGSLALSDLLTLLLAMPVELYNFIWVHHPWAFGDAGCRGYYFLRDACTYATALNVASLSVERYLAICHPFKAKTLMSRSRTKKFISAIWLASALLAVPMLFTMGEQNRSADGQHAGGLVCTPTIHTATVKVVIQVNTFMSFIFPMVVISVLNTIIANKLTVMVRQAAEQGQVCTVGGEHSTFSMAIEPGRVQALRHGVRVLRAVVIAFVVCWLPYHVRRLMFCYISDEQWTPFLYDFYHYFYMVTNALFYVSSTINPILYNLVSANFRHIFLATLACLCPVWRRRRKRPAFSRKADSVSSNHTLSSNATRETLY

**Q.** COc1cccc(OC)c1-c1cc(C(=O)N[C@@H](CC(C)C)C(=O)O)nn1-c1ccnc2cc(Cl)ccc12 [Compound 2, reference compound] was tested. Which EC50 (NTR1 [1]; NTR1 Ca2+ flux assay) did it give?
**A.** Its EC50 is < 0.156 µM.

**Q.** Which “loss of potency compared to 5” value (NTR1 [2]; [6]) does the source give for COc1cc2nc(C3CCC3)nc(N3CCN(c4ccccn4)CC3)c2cc1OC [Compound 18] here?
**A.** Its value is > 6 fold.

**Q.** With CCOc1cc2c(N3CCN(c4ccccc4[N+](=O)[O-])CC3)nc(-c3ccccc3)nc2cc1OC [Compound 19] as the compound, how does the “loss of potency compared to 5” value (NTR1 [2]; [6]) read?
**A.** The value was > 6 fold.

**Q.** COc1cc2nc(C3CC3)nc(N3CCN(c4ccccc4OC)CC3)c2cc1OC [Compound 32, 2-cyclopropyl-6,7-dimethoxy-4-(4-(2-methoxyphenyl)-piperazin-1-yl)quinazoline] was tested. Which cross reactivity [3] did it give?
**A.** Its cross reactivity is “no cross reactivity”.

**Q.** And the “response in Ca2+ mobilization / flux assay” value (NTR1 [1]; result in words)?
**A.** The value was “no significant response; also recorded: no significant activity”.

**Q.** What about the binding [4] of the same compound?
**A.** Its binding is 63-100%.

**Q.** What about the window for toxicity [5] of the same compound?
**A.** The window for toxicity was > 15 fold.

**Q.** And the “improvement in activity over 5” value (NTR1 [2]; [6])?
**A.** Its value is 3 fold.

**Q.** Which “loss of potency compared to 5” value (NTR1 [2]; [6]) does the source give for COc1ccc2c(N3CCN(c4ccccc4OC)CC3)nc(C3CCC3)nc2c1 [Compound 38] here?
**A.** Its value is 4-6 fold.

**Q.** How did the “loss of potency compared to 5” value (NTR1 [2]; [6]) turn out when COc1ccccc1N1CCN(c2nc(C3CCC3)nc3ccccc23)CC1 [Compound 39] was run?
**A.** The value was 4-6 fold.

**Q.** How did the “loss of potency compared to 5” value (NTR1 [2]; [6]) turn out when COc1ccccc1N1CCN(c2nc(C3CCC3)nc3cc4c(cc23)OCO4)CC1 [Compound 40] was run?
**A.** The value was “over 6 fold”.

**Q.** For CCOc1ccccc1N1CCN(c2nc(C3CC3)nc3cc(OC)c(OC)cc23)CC1 [Compound 42], which “loss in potency compared to 32” value (NTR1 [2]) is on record?
**A.** Its value is 3-10 fold.

**Q.** Which “loss in potency compared to 32” value (NTR1 [2]) does the source give for COc1cc2nc(C3CC3)nc(N3CCN(c4ccccc4Cl)CC3)c2cc1OC [Compound 43] here?
**A.** The value was 3-10 fold.
